Measurements published in article PMC8962522, “Direct interaction of TrkA/CD44v3 is essential for NGF-promoted aggressiveness of breast cancer cells” (Journal of Experimental & Clinical Cancer Research : CR, 2022).

Test system: RhoA in MDA-MB-231 cells expressing kinase-dead TrkA
Assay: Ratiometric FRET RhoA activation, kinase-dead TrkA cells
Format: cell-based
Conditions: for relocation of activated RhoA to the migration front / local RhoA activation, in words: 25 min NGF, relocation observed with scramble peptide
Method: MDA-MB-231 native or KD cells were seeded (5000 cells/well; ovn, 37 °C) in a chambered coverglass system (Lab-Tek®) coated with a type I collagen matrix (100 μg/mL; Corning). These cells were transfected using the pBabe-puro-RhoA plasmid (0.15 μg; Addgene plasmid #12602) diluted in a buffer solution (JetOPTIMUS® buffer) and a transfection agent (TA; 10 min). The mixture was incorporated into the culture medium (4 h; 37 °C). Two to three hours before image acquisition, the cells expressing the RhoA biosensor were starved in fresh EMEM containing 0.1% FBS and no phenol red. During image acquisition, the cells were maintained at 37 °C and with 5% CO2 in an incubation chamber installed under a microscope. Images were collected using a ZEISS LSM 880 confocal microscope with a plan-apochromat 63×/1.4 oil differential interference contrast (DIC) objective. The argon laser was tuned to emit 458 nm and 514 nm laser lines through a 470 to 500 nm bandpass emission filter (BP470–500) for CFP detection and a 530 nm longpass emission filter (LP530) for YFP detection. The emission of the CFP, FRET and YFP channels was recorded. The fluorescence emission ratios were computed using ImageJ software, which was also used to generate a report showing the FRET efficiency and intensity signal for each channel.
To further elucidate the mechanism of action of CD44v3 mimetic peptide 4, we studied its effect on the TrkA signaling pathway. […] Additionally, to confirm that this effect was independent of TrkA phosphorylation, we measured RhoA activation in MDA-MB-231 cells expressing dead TrkA kinase, which cannot be phosphorylated (Fig. 5D). […]
Fig. 5 CD44v3 is implicated in the phospho-TrkA-independent activation of RhoA GTPase. Phosphorylation of TrkA was measured in the presence of a scramble peptide or CD44v3 mimetic peptide 4 (P4) in the presence or absence of NGF (A). […] Phosphorylation of TrkA and downstream Akt in wild-type MDA-MB-231 and MDA-MB-231 cells expressing kinase-dead TrkA, as determined by western blotting (D). […]

Sequence: IDDDEDFISST [Peptide 4, mimetic peptide 4 (…) corresponding to the C-terminal region of CD44v3]
- relocation of activated RhoA to the migration front / local RhoA activation, in words (not with peptide 4, listed as CD44v3 mimetic peptide 4): relocation of activated RhoA to the migration front of the control cells with the scramble peptide after 25 min of NGF treatment but not with CD44v3 mimetic peptide 4
- relocation of activated RhoA to the migration front / local RhoA activation, in words (not with peptide 4, listed as P4): impedes local RhoA activation independent of TrkA phosphorylation
- NGF-induced increase in proportion of active RhoA, in words (45 min NGF, statement: increased with scramble peptide, not with peptide 4): NGF increased the proportion of active RhoA after 45 min in the presence of the scramble peptide (Fig. 5E) but not CD44v3 mimetic peptide 4
